Measurements taken from ChEMBL document CHEMBL1201862, “PubChem BioAssay data set” (2004).
Active and inactive are the calls of the source.

Experiments:
CAAX prenyl protease 2 = CAAX prenyl protease 2 (Saccharomyces cerevisiae S288c, UniProt Q03530); type: biochemical
Trypsin = Trypsin (Sus scrofa, UniProt P00761); assay: trypsin protease activity blockade – biochemical, quenched peptide fluorescence, cherry-pick, selectivity assay for Rce1 protease inhibitor project, dose response (AID 488789)
cells = type: functional, cell-based
[1] = alpha-synuclein stem-loop translation blockers – luminescence, H4 neuroglioblastoma cells, dose confirmation, confirmation (AID 2454); type: functional, cell-based;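 further: H4 neuroglioblastoma cells carrying an alpha-synuclein 5'UTR luciferase reporter; potency for inhibition of the luciferase signal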
BJ [2] = assay: cells; type: functional, cell-based; conditions: Homo sapiens
BJ [3] = assay: BJ-TERT-LT-ST fibroblast viability loss – cell-based, RAS-independent, luminescence, dose response (AID 1935); type: functional; conditions: Homo sapiens;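 further: BJ fibroblasts immortalized with TERT plus LT and ST oncogenes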
[4] = luciferase reporter signal reduction – luminescence, H4-C neuroglioblastoma cells, dose response (AID 2458); type: functional, cell-based;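 further: H4 neuroglioblastoma cells stably carrying a luciferase reporter gene fusion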
[5] = Luminescence Cell-Based Dose Response HTS to Identify Inhibitors of Luciferase Translation or Activity in H4-C Neuroglioblastoma Cells. [Related pubchem assays: 1813 (Primary HTS), 1827 (Project Summary)]; type: functional
[6] = alpha-synuclein stem-loop luciferase translation blockers – H4 neuroglioma cells, luminescence, confirmation (AID 1988); type: functional, cell-based
[7] = Luminescence Cell-Based Dose Response HTS to Identify Activators of Luciferase Translation or Activity in H4-C Neuroglioblastoma Cells. [Related pubchem assays: 1829 (Project Summary), 1814 (Primary HTS)]; type: functional
[8] = Luminescence Cell-Based Dose Response HTS to Identify Activators of 5'UTR Stem-Loop Driven Prion Protein mRNA Translation in H4-C Neuroglioblastoma Cells. [Related pubchem assays: 1829 (Project Summary), 1814 (Primary HTS)]; type: functional
BJ [9] = assay: BJ-TERT fibroblast viability loss – cell-based, RAS-independent, luminescence, dose response (AID 1933); type: functional; conditions: Homo sapiens
[10] = Luminescence Cell-Based Dose Retest to Confirm Activators of 5'UTR Stem-Loop Driven Alpha-Synuclein mRNA Translation in H4 Neuroglioblastoma Cells. [Related pubchem assays (depositor defined):AID1813, AID1829]; type: functional
[11] = Luminescence Cell-Based Dose Confirmation HTS to Identify Inhibitors of 5'UTR Stem-Loop Driven Alpha-Synuclein mRNA Translation in H4 Neuroglioblastoma Cells. [Related pubchem assays: 1827 (Project Summary), 1813 (Primary HTS)]; type: functional
[12] = Luminescence Cell-Based Dose Response HTS to Identify Inhibitors of 5'UTR Stem-Loop Driven Prion Protein mRNA Translation in H4 Neuroglioblastoma Cells. [Related pubchem assays: 1827 (Project Summary), 1813 (Primary HTS)]; type: functional
[13] = DRD fibroblast viability loss – cell-based, non-viral oncogenic, luminescence, dose response (AID 1934); type: functional; conditions: Homo sapiens
[14] = luciferase reporter signal suppression in cells – H4 neuroglioma cells, luminescence, dose response (AID 1990); type: functional, cell-based
[15] = Luminescence Cell-Based Dose HTS Response to Identify Inhibitors of 5'UTR Stem-Loop Driven Prion Protein mRNA Translation in H4-C Neuroglioblastoma Cells. [Related pubchem assays (depositor defined):AID1814, AID1827]; type: functional
[16] = target: Eukaryotic translation initiation factor 4H (Homo sapiens, UniProt Q15056); assay: inhibitors of translation initiation factor eIF4H – SAR follow-up (AID 435011); type: functional
[17] = target: Polyadenylate-binding protein 1 (Homo sapiens, UniProt P11940); assay: PABP inhibition in translation initiation, SAR follow-up (AID 435018); type: functional
[18] = target: Glyceraldehyde-3-phosphate dehydrogenase (Homo sapiens, UniProt P04406)
[19] = target: Alkaline phosphatase, placental type (Homo sapiens, UniProt P05187); assay: human placental alkaline phosphatase inhibition – biochemical, luminescence, confirmation (AID 1512); type: functional
T-cell = assay: loss of vesicle association with mouse CD8+ T cells – mouse 2C CD8+ T cells, flow cytometry, dose response (AID 485284); type: functional
Hexokinase = Hexokinase (Trypanosoma brucei, UniProt Q38C41); assay: Confirmation assay for inhibitors of Trypanosoma brucei hexokinase 1-Analogue-first series. [Related pubchem assays (depositor defined):AID1430, AID1632, AID2516, AID2560, AID2579, AID2600, AID449725, AID492951]; type: functional
Sequence of Hexokinase (Q38C41 whole entry): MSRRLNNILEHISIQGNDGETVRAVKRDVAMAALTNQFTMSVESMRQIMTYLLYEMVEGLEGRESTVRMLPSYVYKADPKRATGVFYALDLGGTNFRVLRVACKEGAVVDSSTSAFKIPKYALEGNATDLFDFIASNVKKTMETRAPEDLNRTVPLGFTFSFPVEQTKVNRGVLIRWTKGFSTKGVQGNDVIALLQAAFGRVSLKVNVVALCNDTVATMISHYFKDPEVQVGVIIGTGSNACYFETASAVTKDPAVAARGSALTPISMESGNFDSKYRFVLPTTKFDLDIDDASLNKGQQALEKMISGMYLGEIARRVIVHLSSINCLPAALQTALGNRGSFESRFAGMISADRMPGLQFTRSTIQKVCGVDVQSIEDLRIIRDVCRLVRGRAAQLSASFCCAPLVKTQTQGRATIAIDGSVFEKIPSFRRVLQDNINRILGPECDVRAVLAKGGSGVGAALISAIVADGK

Sequence of CAAX prenyl protease 2 (Q03530 whole entry): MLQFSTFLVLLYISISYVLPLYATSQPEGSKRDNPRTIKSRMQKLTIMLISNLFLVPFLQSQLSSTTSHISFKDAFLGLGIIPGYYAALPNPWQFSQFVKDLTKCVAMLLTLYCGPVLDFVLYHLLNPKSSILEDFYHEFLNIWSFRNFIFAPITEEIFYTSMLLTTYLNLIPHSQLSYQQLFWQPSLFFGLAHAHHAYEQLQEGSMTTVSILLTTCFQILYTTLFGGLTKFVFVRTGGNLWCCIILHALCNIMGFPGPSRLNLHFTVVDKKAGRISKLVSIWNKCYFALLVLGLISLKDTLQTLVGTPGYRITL
Sequence of Polyadenylate-binding protein 1 (P11940 whole entry): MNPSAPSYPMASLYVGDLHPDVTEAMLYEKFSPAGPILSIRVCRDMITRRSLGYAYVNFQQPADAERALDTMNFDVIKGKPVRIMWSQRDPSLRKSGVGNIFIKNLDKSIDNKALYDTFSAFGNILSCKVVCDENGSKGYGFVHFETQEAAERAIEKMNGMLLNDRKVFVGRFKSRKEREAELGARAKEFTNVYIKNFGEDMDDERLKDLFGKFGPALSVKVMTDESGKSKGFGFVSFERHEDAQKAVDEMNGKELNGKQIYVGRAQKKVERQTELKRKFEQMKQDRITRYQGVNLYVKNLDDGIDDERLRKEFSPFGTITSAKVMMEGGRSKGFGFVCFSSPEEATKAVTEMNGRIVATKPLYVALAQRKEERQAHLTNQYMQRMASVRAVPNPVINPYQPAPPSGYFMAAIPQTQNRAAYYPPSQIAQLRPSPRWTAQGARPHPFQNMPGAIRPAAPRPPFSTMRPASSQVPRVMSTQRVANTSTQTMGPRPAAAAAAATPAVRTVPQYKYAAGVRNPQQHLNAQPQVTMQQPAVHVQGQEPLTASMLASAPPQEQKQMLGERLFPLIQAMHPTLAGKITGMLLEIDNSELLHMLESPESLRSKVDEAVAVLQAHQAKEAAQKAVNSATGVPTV
Sequence of Trypsin (P00761 whole entry): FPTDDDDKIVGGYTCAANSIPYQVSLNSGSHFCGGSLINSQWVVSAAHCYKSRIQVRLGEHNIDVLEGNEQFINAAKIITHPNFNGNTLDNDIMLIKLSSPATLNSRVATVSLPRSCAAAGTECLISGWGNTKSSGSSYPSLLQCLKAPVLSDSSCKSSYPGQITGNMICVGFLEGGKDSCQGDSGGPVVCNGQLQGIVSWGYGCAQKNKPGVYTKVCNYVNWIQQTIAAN
Sequence of Alkaline phosphatase, placental type (P05187 whole entry): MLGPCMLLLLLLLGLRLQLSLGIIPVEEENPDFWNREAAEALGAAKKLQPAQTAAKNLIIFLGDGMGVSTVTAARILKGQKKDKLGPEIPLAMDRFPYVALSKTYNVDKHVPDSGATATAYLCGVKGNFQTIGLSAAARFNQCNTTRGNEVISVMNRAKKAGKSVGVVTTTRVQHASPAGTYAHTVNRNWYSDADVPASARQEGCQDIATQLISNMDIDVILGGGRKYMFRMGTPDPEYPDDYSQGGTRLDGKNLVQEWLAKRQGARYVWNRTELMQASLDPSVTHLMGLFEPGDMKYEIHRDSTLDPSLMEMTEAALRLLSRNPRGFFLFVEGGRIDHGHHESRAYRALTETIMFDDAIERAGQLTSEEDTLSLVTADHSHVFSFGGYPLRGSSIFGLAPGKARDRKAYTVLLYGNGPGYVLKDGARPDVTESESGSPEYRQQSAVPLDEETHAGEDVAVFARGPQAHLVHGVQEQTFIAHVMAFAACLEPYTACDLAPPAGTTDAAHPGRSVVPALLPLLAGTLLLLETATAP
Sequence of Glyceraldehyde-3-phosphate dehydrogenase (P04406 whole entry): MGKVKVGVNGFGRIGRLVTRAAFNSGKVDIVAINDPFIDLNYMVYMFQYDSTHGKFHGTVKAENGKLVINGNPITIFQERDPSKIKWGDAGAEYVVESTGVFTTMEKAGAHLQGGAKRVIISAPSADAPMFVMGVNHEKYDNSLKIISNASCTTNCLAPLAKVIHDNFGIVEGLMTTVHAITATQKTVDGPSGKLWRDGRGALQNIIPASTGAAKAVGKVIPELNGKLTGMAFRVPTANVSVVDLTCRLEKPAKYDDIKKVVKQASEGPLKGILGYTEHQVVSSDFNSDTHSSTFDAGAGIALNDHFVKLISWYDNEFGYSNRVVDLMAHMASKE

Cc1ccc(C(=O)c2c3ccc(C(F)(F)F)cc3nn2CCC(N)=O)cc1
AC50 (CAAX prenyl protease 2): 3.73 µM (active) | AC50 (Trypsin): > 100 µM (inactive)

Cc1ccc(-c2cc(C(=O)N/N=C/c3c(C)nn(-c4ccccc4)c3C)[nH]n2)s1
EC50 (cells): 4.24 µM (active) | EC50 [1]: 6.08 µM (active) | EC50 (BJ [2]): 46.3 µM (inconclusive) | EC50 (BJ [3]): 0.396 µM (inconclusive) | EC50 [4]: 1.71 µM (active) | EC50 [5]: 0.806 µM (active) | EC50 [6]: < 0.1 µM (active) | EC50 [7]: 1.16 µM (inconclusive) | EC50 [8]: 0.509 µM (inconclusive) | EC50 (BJ [9]): 0.413 µM (active) | EC50 [10]: 2.69 µM (inconclusive) | EC50 [11]: 1.38 µM (active) | EC50 [12]: 11.6 µM (active) | EC50 [13]: 20 µM (inconclusive) | EC50 [14]: 6.26 µM (inconclusive) | EC50 [15]: 1.23 µM (active)

COc1cc(Cl)c(C)cc1NC(=O)COC(=O)c1ccc(NC(N)=O)cc1
IC50 [16]: > 100 µM (inactive) | IC50 [17]: > 100 µM (inactive)

O=C1c2ccccc2C(=O)N1c1nc(Cc2ccccc2)n[nH]1
IC50 [18]: > 100 µM (not active) | IC50 [19]: > 100 µM (inactive)

O=C(CS(=O)(=O)Cc1ccccc1)N1CCc2ccccc21
EC50 (T-cell): 14.1 µM (active)

COc1ccc(C(=O)Nc2cc(OC)ccc2C(=O)O)cc1
IC50 (Hexokinase): > 25 µM (inactive)
